From US20110136844A1, “METHODS FOR INHIBITING DYRK1A TO TREAT CENTRAL NERVOUS SYSTEM DISEASES AND DISORDERS” (MediProPharma, Inc., priority 2009, published 2011)
Marks after values point to notes of the source that are not given here.

What was measured:
[1] = Plasma pharmacokinetics after single dose in normal rats; type: in vivo, Sprague-Dawley rats; conditions: rat plasma, i.v. 10 mg/kg
Protocol: (§1) (IV) Pharmacokinetic Studies
(§2) The pharmacokinetic studies in Sprague-Dawley rats were performed using the protocols developed by WuXi AppTec (St. Paul, Minn., USA, and Shanghai, China. http://www.apptecls.com/).

[2] = Brain-plasma pharmacokinetics after single 10 mg/kg bolus i.v. injection in normal rats; type: in vivo, Sprague-Dawley rats; conditions: rat, 10 mg/kg i.v., the data is the value of AUC(inf)
Protocol: as §1, §2
The brain exposure of the compound of Example 1 is about […] higher than that required for inhibition of DYRK1A, with a Kd and IC50 at about 1 uM, or 280 ng/mL.

With `Cc1nc2c(c3c1[nH]c1ccccc13)C(=O)CC(C)(C)C2` [Example 1, 3,3,6-trimethyl-2,3,4,7-tetrahydroindolo[2,3-c]quinolin-1-one] the Co [1] was 4100 ng/mL, the “AUC0-t of Plasma” value ([2]; time 8 h) was 2350^b ng · h/mL and the “AUC0-t of Plasma” value ([2]; time 24 h) was 2350^b ng · h/mL.
